# Laboratory results reported in article PMC9706480, “Rhamnosyltransferases involved in the biosynthesis of flavone rutinosides in Chrysanthemum species” (Plant Physiology, 2022).
# Legend:
# Assay in all cases: UPLC rhamnosylation assay, Michaelis-Menten fit
# Details in all cases: 0.1 mM UDP-rhamnose as co-substrate; pH 7.5, 37 °C
# [1] = tested on: T1, CiRhaT-JX4x (UGT79A21); assay type: biochemical, Chrysanthemum indicum
# T1 construct: full-length, 469 aa, MBP fusion (pMAL-c5X, tag removal not mentioned), E. coli Rosetta (DE3)
# [2] = tested on: T2, CiRhaT-HB2x (UGT79A22); assay type: biochemical, Chrysanthemum indicum
# T2 construct: full-length, 469 aa, MBP fusion (pMAL-c5X, tag removal not mentioned), E. coli Rosetta (DE3)
# [3] = tested on: T3, CiRhaT-GD4x (UGT79A20); assay type: biochemical, Chrysanthemum indicum
# T3 construct: full-length, 469 aa, MBP fusion (pMAL-c5X, tag removal not mentioned), E. coli Rosetta (DE3)
# [4] = tested on: T4, CnRhaT-HB2x (UGT79A23); assay type: biochemical, Chrysanthemum nankingense
# T4 construct: full-length, 469 aa, MBP fusion (pMAL-c5X, tag removal not mentioned), E. coli Rosetta (DE3)
Km [1],Km [2],Km [3],Km [4],SMILES
45.3 ± 6.08 µM,57.1 ± 5.34 µM,32.4 ± 5.9 µM,140 ± 32.1 µM,"O=c1cc(-c2ccc(O)cc2)oc2cc(O[C@@H]3O[C@H](CO)[C@@H](O)[C@H](O)[C@H]3O)cc(O)c12 [compound 2, apigenin-7-O-glucoside]"
8.27 ± 0.984 µM,8.71 ± 1.79 µM,14.2 ± 1.36 µM,9.45 ± 1.5 µM,"COc1ccc(-c2cc(=O)c3c(O)cc(O[C@@H]4O[C@H](CO)[C@@H](O)[C@H](O)[C@H]4O)cc3o2)cc1 [compound 1, acacetin-7-O-glucoside]"
7.67 ± 0.809 µM,9.35 ± 1.38 µM,12.9 ± 1.27 µM,17.7 ± 2.82 µM,"COc1ccc(-c2cc(=O)c3c(O)cc(O[C@@H]4O[C@H](CO)[C@@H](O)[C@H](O)[C@H]4O)cc3o2)cc1O [compound 3, diosmetin-7-O-glucoside]"
